Values of other authors in patent publication US9890151B2, “3,5-dichloro,4-(3,4-(cyclo-)alkoxyphenyl)- 2-carbonyloxy)ethyl)pyridine derivatives as PDE-4 inhibitors” (CHIESI FARMACEUTICI S.p.A., priority 2014, dated 2018).

[1] = patients with severe disease who have frequent exacerbations and mucus hypersecretion

In the case of `O=C(Nc1c(Cl)cncc1Cl)c1ccc(OC(F)F)c(OCC2CC2)c1` [roflumilast], the “reduction of the numbers of neutrophils in sputum” value (COPD patients, oral roflumilast given over 4 weeks) is listed as 36%, the “improvement of FEV 1” value [1] is listed as “approximately 50 mL” and the reduction of exacerbation [1] is listed as “about 15%”.
